From US20250171437A1 (Agios Pharmaceuticals,Inc., priority 2022, published 2025) come the findings set out here.

Some results are limits rather than exact numbers.

The experiment deals with T1, human PAH with the R408W mutation (A375 R408W cells) (Homo sapiens, UniProt P00439, R408W).
T1 construct: expressed in transfected cells
T1 sequence (P00439 1-452 R408W): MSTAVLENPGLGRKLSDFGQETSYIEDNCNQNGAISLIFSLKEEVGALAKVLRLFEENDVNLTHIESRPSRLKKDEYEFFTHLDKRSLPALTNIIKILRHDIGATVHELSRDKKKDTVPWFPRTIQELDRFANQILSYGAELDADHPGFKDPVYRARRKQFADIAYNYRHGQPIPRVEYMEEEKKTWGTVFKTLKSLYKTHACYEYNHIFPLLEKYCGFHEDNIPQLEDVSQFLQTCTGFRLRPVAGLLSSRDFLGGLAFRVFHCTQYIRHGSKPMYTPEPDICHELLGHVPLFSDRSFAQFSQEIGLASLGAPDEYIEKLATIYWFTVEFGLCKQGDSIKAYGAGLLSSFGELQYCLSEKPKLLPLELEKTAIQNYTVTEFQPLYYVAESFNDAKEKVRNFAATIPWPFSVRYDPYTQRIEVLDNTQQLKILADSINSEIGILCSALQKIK
The experiment is described as follows: Cell Based Phenylalanine Flux Assay. The settings on record: 24 hrs with compound, then 20 μM sepiapterin and 800 μM 13C9,15N-Phenylalanine for 4 hours, 13C-Tyrosine by LC-MS, average where tested multiple times. In outline: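 Puromycin-selected A375 line, lentiviral hPAH R408W; cmpd 24 h, 37 °C, 5% CO2, 0.5% DMSO; then 20 μM sepiapterin + 800 μM 13C9,15N-Phe, 4 h; media extracted in 80% MeCN; 13C-Tyr by LC-MS; AC50 from 10-pt curves.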

[1] abbreviates: A375 cells expressing R408W PAH.

On to `Cn1cncc1-c1nc(C(F)(F)F)c(C(=O)N2CCc3[nH]cnc3[C@H]2c2nc3cc(F)ccc3o2)o1` [Example 791, (S)-(4-(5-fluorobenzo[d]oxazol-2-yl)-6,7-dihydro-1H-imidazo[4,5-c]pyridin-5(4H)-yl)(2-(1-methyl-1H-imidazol-5-yl)-4-(trifluoromethyl)oxazol-5-yl)methanone], for which the AC50 (in general, the midpoint of the concentration-response curve, whichever way the signal moves) (A375 R408W cells) fell in the range of 500 to 1000 nM.
The same measure, in the same setting: under `Cc1ccc2oc([C@@H]3c4nc[nH]c4CCN3C(=O)c3oc(C(C)(C)O)nc3C(F)F)nc2c1` [Example 311, (S)-(4-(difluoromethyl)-2-(2-hydroxypropan-2-yl)oxazol-5-yl)(4-(5-methylbenzo[d]oxazol-2-yl)-6,7-dihydro-1H-imidazo[4,5-c]pyridin-5(4H)-yl)methanone] stands not above 500 nM; under `CC(C)(F)c1ncc(C(=O)N2CCc3[nH]cnc3[C@H]2c2nc3cc(F)ccc3o2)o1` [Example 13, (S)-(4-(5-fluorobenzo[d]oxazol-2-yl)-6,7-dihydro-1H-imidazo[4,5-c]pyridin-5(4H)-yl)(2-(2-fluoropropan-2-yl)oxazol-5-yl)methanone], not above 500 nM; under `CN1CCN(c2ccc3c(C(=O)N4CCc5[nH]cnc5[C@H]4c4nc5cc(F)ccc5o4)cnn3c2)CC1(C)C` [Example 139, (S)-(4-(5-fluorobenzo[d]oxazol-2-yl)-6,7-dihydro-1H-imidazo[4,5-c]pyridin-5(4H)-yl)(6-(3,3,4-trimethylpiperazin-1-yl)pyrazolo[1,5-a]pyridin-3-yl)methanone], 500 to 1000 nM.
In the case of `CC(C)n1ncnc1C(=O)N1CCc2[nH]cnc2[C@H]1c1nc2cccc(F)c2o1` [Example 707, (S)-(4-(7-fluorobenzo[d]oxazol-2-yl)-6,7-dihydro-1H-imidazo[4,5-c]pyridin-5(4H)-yl)(1-isopropyl-1H-1,2,4-triazol-5-yl)methanone], the AC50 (A375 R408W cells) is not above 500 nM.
As to `COc1cccc2oc([C@@H]3c4nc[nH]c4CCN3C(=O)c3cnco3)nc12` [Example 621, (S)-(4-(4-methoxybenzo[d]oxazol-2-yl)-6,7-dihydro-1H-imidazo[4,5-c]pyridin-5(4H)-yl)(oxazol-5-yl)methanone], the AC50 (A375 R408W cells) fell in the range of 500 to 1000 nM.
Consider `O=C(c1nnc(N2CC(F)C2)o1)N1CCc2[nH]cnc2C1c1nc2cc(F)ccc2o1` (stereo not shown), for which the concentration at half-maximal activity (AC50) under setting [1] fell in the range of 1000 to 5000 nM.
In the case of `[2H]C([2H])([2H])OCc1nc(C(F)F)c(C(=O)N2CCc3[nH]cnc3[C@H]2c2nc3cc(F)ccc3o2)o1` [Example 155, (S)-(4-(difluoromethyl)-2-((methoxy-d3)methyl)oxazol-5-yl)(4-(5-fluorobenzo[d]oxazol-2-yl)-1,4,6,7-tetrahydro-5H-imidazo[4,5-c]pyridin-5-yl)methanone], under “A375 R408W cells”, the AC50 is not above 500 nM.
Consider `O=C(c1nnc(-c2ccn(C(F)F)n2)o1)N1CCc2[nH]cnc2[C@H]1c1nc2cccc(F)c2o1` [Example 862, (S)-(5-(1-(difluoromethyl)-1H-pyrazol-3-yl)-1,3,4-oxadiazol-2-yl)(4-(7-fluorobenzo[d]oxazol-2-yl)-6,7-dihydro-1H-imidazo[4,5-c]pyridin-5(4H)-yl)methanone], for which the AC50 (A375 R408W cells) was not above 500 nM.
Same read-out and setting: in the case of `O=C(c1cnn2cc(N3CCC4(CC3)CC4)ccc12)N1CCc2[nH]cnc2[C@@H]1c1nc2c(F)cccc2o1` [Example 506, (R)-(6-(6-azaspiro[2.5]octan-6-yl)pyrazolo[1,5-a]pyridin-3-yl)(4-(4-fluorobenzo[d]oxazol-2-yl)-6,7-dihydro-1H-imidazo[4,5-c]pyridin-5(4H)-yl)methanone] it was 1000 to 5000 nM; in that of `COCc1ccc2c(C(=O)N3CCc4[nH]cnc4[C@H]3c3nc4cc(F)ccc4o3)cnn2c1` [Example 29, (S)-(4-(5-fluorobenzo[d]oxazol-2-yl)-6,7-dihydro-1H-imidazo[4,5-c]pyridin-5(4H)-yl)(6-(methoxymethyl)pyrazolo[1,5-a]pyridin-3-yl)methanone], 1000 to 5000 nM.
As to `COCCc1ccc2c(C(=O)N3CCc4[nH]cnc4C3c3nc4cc(F)ccc4o3)cnn2c1` (stereo not shown), the AC50 under setting [1] was 1000 to 5000 nM.
In the case of `CC(C)(O)c1nc(CF)c(C(=O)N2CCc3[nH]cnc3[C@H]2c2nc3cc(F)ccc3o2)o1` [Example 211, (S)-(4-(5-fluorobenzo[d]oxazol-2-yl)-6,7-dihydro-1H-imidazo[4,5-c]pyridin-5(4H)-yl)(4-(fluoromethyl)-2-(2-hydroxypropan-2-yl)oxazol-5-yl)methanone], the concentration at half-maximal activity (AC50) (A375 R408W cells) was in the range of 500 to 1000 nM.
Turning to `C[C@H](O)c1nc(C(F)F)c(C(=O)N2CCc3[nH]cnc3[C@@H]2c2nc3cc(F)ccc3o2)o1` [Example 158, (4-(difluoromethyl)-2-((S)-1-hydroxyethyl)oxazol-5-yl)((R)-4-(5-fluorobenzo[d]oxazol-2-yl)-6,7-dihydro-1H-imidazo[4,5-c]pyridin-5(4H)-yl)methanone], the AC50 (A375 R408W cells) is 1000 to 5000 nM.
As to `CC(C)(O)c1nc(C(F)F)c(C(=O)N2CCc3[nH]cnc3[C@H]2c2nc3cc(OC(F)(F)F)ccc3o2)o1` [Example 351, (S)-(4-(difluoromethyl)-2-(2-hydroxypropan-2-yl)oxazol-5-yl)(4-(5-(trifluoromethoxy)benzo[d]oxazol-2-yl)-6,7-dihydro-1H-imidazo[4,5-c]pyridin-5(4H)-yl)methanone], the concentration at half-maximal activity (AC50) (A375 R408W cells) is not above 500 nM.
For the compound `O=C(c1nnc(-c2cn[nH]c2)o1)N1CCc2[nH]cnc2C1c1nc2cc(F)ccc2o1` (stereo not shown), under setting [1], the AC50 fell in the range of 1000 to 5000 nM.
Turning to `Cc1ccc(C)c2oc([C@@H]3c4nc[nH]c4CCN3C(=O)c3ocnc3C(F)F)nc12` [Example 890, (S)-(4-(difluoromethyl)oxazol-5-yl)(4-(4,7-dimethylbenzo[d]oxazol-2-yl)-6,7-dihydro-1H-imidazo[4,5-c]pyridin-5(4H)-yl)methanone], where the note is “A375 R408W cells”, the AC50 was not above 500 nM.
For `O=C(c1nnc(-c2ccccn2)o1)N1CCc2[nH]cnc2[C@H]1c1nc2ccccc2o1` [Example 583, (S)-(4-(benzo[d]oxazol-2-yl)-6,7-dihydro-1H-imidazo[4,5-c]pyridin-5(4H)-yl)(5-(pyridin-2-yl)-1,3,4-oxadiazol-2-yl)methanone], the AC50 (A375 R408W cells) is not above 500 nM.
With `COc1ccc2oc([C@H]3c4nc[nH]c4CCN3C(=O)c3oc(C(C)(C)O)nc3C(F)F)nc2c1` [Example 340, (R)-(4-(difluoromethyl)-2-(2-hydroxypropan-2-yl)oxazol-5-yl)(4-(5-methoxybenzo[d]oxazol-2-yl)-6,7-dihydro-1H-imidazo[4,5-c]pyridin-5(4H)-yl)methanone], the AC50 (A375 R408W cells) fell in the range of 1000 to 5000 nM.
For `CN(C)Cc1nnc(C(=O)N2CCc3[nH]cnc3C2c2nc3cc(F)ccc3o2)o1` (stereo not shown), the concentration at half-maximal activity (AC50) under setting [1] lay in the range of 1000 to 5000 nM.
As to `Cn1nc(C(F)(F)F)nc1C(=O)N1CCc2[nH]cnc2[C@@H]1c1nc2ccccc2o1` [Example 684, (R)-(4-(benzo[d]oxazol-2-yl)-6,7-dihydro-1H-imidazo[4,5-c]pyridin-5(4H)-yl)(1-methyl-3-(trifluoromethyl)-1H-1,2,4-triazol-5-yl)methanone], the half-maximal activity concentration (AC50) (A375 R408W cells) was in the range of 1000 to 5000 nM.
For the compound `CC(C)(O)c1nc(C(F)F)c(C(=O)N2CCc3[nH]cnc3[C@H]2c2nc3cccc(OC(F)(F)F)c3o2)o1` [Example 529, (S)-(4-(difluoromethyl)-2-(2-hydroxypropan-2-yl)oxazol-5-yl)(4-(7-(trifluoromethoxy)benzo[d]oxazol-2-yl)-6,7-dihydro-1H-imidazo[4,5-c]pyridin-5(4H)-yl)methanone], the AC50 (A375 R408W cells) is not above 500 nM.
Still for that read-out and setting: under `O=C(c1ocnc1C(F)(F)F)N1CCc2[nH]cnc2[C@@H]1c1nc2ccccc2o1` [Example 798, (R)-(4-(benzo[d]oxazol-2-yl)-6,7-dihydro-1H-imidazo[4,5-c]pyridin-5(4H)-yl)(4-(trifluoromethyl)oxazol-5-yl)methanone] stands 500 to 1000 nM; under `O=C(c1oc(-c2ccccn2)nc1C(F)(F)F)N1CCc2[nH]cnc2[C@@H]1c1nc2cc(F)ccc2o1` [Example 50, (R)-(4-(5-fluorobenzo[d]oxazol-2-yl)-6,7-dihydro-1H-imidazo[4,5-c]pyridin-5(4H)-yl)(2-(pyridin-2-yl)-4-(trifluoromethyl)oxazol-5-yl)methanone], not above 500 nM.
Same read-out and setting: in the case of `CC(C)(C)c1ncc(C(=O)N2CCc3[nH]cnc3[C@@H]2c2nc3cc(F)ccc3o2)s1` [Example 18, (R)-(2-(tert-butyl)thiazol-5-yl)(4-(5-fluorobenzo[d]oxazol-2-yl)-6,7-dihydro-1H-imidazo[4,5-c]pyridin-5(4H)-yl)methanone] it was 1000 to 5000 nM.
With `Cn1ncnc1C(=O)N1CCc2[nH]cnc2C1c1nc2c(F)ccc(F)c2o1` (stereo not shown), the AC50 under setting [1] lay in the range of 1000 to 5000 nM.
For the compound `O=C(c1ocnc1C(F)F)N1CCc2[nH]cnc2[C@H]1c1nc2c(C(F)(F)F)cccc2o1` [Example 465, (S)-(4-(difluoromethyl)oxazol-5-yl)(4-(4-(trifluoromethyl)benzo[d]oxazol-2-yl)-6,7-dihydro-1H-imidazo[4,5-c]pyridin-5(4H)-yl)methanone], under “A375 R408W cells”, the AC50 is not above 500 nM.
On to `CC(C)(O)c1nc(C(F)F)c(C(=O)N2CCc3[nH]cnc3[C@@H]2c2nc3c(F)c(F)ccc3o2)o1` [Example 348, (R)-(4-(4,5-difluorobenzo[d]oxazol-2-yl)-6,7-dihydro-1H-imidazo[4,5-c]pyridin-5(4H)-yl)(4-(difluoromethyl)-2-(2-hydroxypropan-2-yl)oxazol-5-yl)methanone], for which the AC50 (A375 R408W cells) is 1000 to 5000 nM.
